Values of other authors, collected in patent US5879680A, “Cloned DNA for synthesizing unique glucocerebrosidase” (The United States of America as represented by the …, priority 1995, dated 1999).

Target: human placental glucocerebrosidase (Homo sapiens, UniProt P04062)
Settings: placental enzyme, reported by Basu et al, J.B.C. 259:1714, 1984

human placental glucocerebrosidase, sequence (P04062 40-536): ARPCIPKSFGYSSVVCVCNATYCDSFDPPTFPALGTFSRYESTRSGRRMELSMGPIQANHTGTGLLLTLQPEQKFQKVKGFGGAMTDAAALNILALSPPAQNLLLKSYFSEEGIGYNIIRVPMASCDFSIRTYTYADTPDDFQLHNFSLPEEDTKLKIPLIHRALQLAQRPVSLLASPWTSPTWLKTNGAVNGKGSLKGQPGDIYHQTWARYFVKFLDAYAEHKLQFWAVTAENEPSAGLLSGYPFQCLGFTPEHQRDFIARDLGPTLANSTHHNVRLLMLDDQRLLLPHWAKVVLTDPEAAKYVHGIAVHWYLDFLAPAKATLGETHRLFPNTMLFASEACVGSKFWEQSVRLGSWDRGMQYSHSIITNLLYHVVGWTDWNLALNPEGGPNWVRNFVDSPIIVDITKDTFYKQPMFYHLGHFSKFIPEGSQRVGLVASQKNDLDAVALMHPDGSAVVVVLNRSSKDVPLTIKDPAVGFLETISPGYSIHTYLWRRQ

- Km: 8 mM
Compound: Cc1cc(=O)oc2cc(O[C@@H]3O[C@H](CO)[C@@H](O)[C@H](O)[C@H]3O)ccc12 [4MUGP, 4-methylumbellifery-β-D-glucopyranoside]
